This note sets out measurements from ChEMBL document CHEMBL4002642, “Design, synthesis and evaluation of antiproliferative activity of melanoma-targeted histone deacetylase inhibitors” (Bioorg Med Chem Lett, 2017).

The test system of experiment [1] is B16-F10. The experiment in a line: Cytotoxicity against mouse B16F10 cells assessed as growth inhibition after 72 hrs by MTS assay. Format: functional, cell-based. The following applies: B16-F10, 72 h. (In general: Formazan colour is commonly taken as a measure of viable cells.)
In experiment [2] the target is T1, Protein deacetylase HDAC6 (Mus musculus) (UniProt Q9Z2V5).
T1 sequence (whole entry): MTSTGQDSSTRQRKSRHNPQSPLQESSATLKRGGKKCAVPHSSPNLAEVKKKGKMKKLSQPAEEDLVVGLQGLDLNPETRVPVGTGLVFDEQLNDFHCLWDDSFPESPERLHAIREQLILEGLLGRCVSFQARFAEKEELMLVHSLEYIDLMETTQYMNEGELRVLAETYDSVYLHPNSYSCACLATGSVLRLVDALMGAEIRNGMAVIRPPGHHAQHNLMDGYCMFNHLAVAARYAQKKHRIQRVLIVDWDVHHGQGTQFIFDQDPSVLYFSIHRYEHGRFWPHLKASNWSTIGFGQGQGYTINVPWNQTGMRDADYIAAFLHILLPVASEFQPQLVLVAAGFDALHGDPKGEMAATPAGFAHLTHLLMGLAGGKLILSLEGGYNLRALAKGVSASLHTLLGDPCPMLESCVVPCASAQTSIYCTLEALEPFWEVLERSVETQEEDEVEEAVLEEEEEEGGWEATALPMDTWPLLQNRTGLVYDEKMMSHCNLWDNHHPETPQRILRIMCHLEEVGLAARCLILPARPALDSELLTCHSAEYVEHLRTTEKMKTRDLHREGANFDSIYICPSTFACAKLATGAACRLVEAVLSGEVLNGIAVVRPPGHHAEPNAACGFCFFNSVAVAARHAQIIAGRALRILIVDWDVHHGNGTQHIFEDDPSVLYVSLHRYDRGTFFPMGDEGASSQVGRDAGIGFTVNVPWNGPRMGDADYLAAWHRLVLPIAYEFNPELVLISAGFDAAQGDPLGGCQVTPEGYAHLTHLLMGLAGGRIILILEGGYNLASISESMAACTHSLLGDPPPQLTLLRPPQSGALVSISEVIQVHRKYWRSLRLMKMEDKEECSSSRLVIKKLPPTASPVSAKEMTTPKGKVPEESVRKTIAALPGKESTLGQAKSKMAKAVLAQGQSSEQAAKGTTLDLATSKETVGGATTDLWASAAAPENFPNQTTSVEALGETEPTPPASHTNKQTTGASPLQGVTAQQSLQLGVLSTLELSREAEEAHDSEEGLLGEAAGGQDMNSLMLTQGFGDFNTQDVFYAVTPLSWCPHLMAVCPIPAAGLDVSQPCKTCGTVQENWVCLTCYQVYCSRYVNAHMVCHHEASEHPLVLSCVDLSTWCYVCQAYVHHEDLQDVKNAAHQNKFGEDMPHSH
The experiment can be described thus: Inhibition of HDAC6 in mouse B16F10 cells assessed as accumulation of acetylated tubulin at 20 uM after 24 hrs by Western blot analysis. Format: cell-based.

The subject of the next experiment is LNCaP. The experiment can be described thus: Cytotoxicity against human LNCAP cells assessed as growth inhibition after 72 hrs by MTS assay. Format: functional, cell-based.
The test system of a further experiment is A-375. The experiment can be described thus: Cytotoxicity against human A375 cells assessed as growth inhibition after 72 hrs by MTS assay. As to conditions: A-375, 72 h. Format: functional, cell-based.
The target of experiment [3] is T2, Histone deacetylase 1 (Homo sapiens, UniProt Q13547). The experiment in a line: Inhibition of HDAC1 (unknown origin) at 5 uM relative to control.
T2 sequence (Q13547 whole entry): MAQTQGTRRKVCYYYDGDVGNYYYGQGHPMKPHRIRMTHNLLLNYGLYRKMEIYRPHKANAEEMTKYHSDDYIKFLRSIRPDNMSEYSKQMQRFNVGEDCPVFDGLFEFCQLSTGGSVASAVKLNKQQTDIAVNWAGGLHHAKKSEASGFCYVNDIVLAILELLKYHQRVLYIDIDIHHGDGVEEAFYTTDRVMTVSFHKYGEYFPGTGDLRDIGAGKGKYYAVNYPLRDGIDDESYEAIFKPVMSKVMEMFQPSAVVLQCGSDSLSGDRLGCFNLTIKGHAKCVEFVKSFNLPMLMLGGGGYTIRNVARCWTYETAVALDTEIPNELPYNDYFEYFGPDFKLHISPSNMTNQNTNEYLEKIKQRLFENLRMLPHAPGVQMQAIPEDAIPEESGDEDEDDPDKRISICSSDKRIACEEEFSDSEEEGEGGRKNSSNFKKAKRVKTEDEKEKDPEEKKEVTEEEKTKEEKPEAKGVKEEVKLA
For experiment [4], the target named is T1, Protein deacetylase HDAC6 (Mus musculus). The experiment in a line: Inhibition of HDAC6 in mouse B16F10 cells assessed as accumulation of acetylated tubulin after 24 hrs by Western blot analysis. Format: cell-based. A general note: Immunoblotting shows a protein as a band on a membrane.
For experiment [5], the system named is B16-F10. The experiment can be described thus: Cytotoxicity against mouse B16F10 cells assessed as growth inhibition at 25 to 50 uM after 72 hrs by MTS assay. Format: functional, cell-based.
The target in experiment [6] is T3, Protein deacetylase HDAC6 (Homo sapiens) (UniProt Q9UBN7).
T3 sequence (whole entry): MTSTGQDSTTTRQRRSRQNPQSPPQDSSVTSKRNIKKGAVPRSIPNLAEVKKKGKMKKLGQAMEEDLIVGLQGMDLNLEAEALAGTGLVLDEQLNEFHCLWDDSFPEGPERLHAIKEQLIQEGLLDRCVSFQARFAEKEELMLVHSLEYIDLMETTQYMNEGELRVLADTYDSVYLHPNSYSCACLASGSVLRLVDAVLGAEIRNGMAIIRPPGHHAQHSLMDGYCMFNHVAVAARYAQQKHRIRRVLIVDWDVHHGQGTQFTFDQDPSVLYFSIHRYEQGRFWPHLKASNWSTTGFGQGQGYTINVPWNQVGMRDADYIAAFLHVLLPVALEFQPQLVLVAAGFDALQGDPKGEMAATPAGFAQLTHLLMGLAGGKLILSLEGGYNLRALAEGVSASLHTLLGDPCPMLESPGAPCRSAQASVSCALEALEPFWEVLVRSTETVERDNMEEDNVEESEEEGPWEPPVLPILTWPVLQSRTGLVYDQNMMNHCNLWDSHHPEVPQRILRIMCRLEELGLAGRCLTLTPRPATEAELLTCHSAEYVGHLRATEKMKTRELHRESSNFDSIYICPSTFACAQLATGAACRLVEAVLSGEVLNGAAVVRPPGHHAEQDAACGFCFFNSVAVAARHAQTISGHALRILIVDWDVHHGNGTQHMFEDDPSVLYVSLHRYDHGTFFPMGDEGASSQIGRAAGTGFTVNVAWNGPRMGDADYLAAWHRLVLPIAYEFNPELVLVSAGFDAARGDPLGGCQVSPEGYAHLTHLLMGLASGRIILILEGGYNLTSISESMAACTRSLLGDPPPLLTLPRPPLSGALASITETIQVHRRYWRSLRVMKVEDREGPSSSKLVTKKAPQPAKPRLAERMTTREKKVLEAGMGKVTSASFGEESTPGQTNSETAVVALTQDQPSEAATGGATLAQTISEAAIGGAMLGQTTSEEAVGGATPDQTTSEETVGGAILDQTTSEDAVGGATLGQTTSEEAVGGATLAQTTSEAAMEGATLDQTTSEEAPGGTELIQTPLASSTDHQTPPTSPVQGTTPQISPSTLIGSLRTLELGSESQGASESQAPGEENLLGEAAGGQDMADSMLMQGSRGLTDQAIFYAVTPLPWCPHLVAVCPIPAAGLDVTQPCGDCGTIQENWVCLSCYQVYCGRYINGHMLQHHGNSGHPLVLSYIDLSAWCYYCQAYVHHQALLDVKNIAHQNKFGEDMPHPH
The experiment in a line: Inhibition of HDAC6 (unknown origin) at 5 uM relative to control.

The target in experiment [7] is T4, Histone deacetylase 8 (Homo sapiens) (UniProt Q9BY41).
T4 sequence (whole entry): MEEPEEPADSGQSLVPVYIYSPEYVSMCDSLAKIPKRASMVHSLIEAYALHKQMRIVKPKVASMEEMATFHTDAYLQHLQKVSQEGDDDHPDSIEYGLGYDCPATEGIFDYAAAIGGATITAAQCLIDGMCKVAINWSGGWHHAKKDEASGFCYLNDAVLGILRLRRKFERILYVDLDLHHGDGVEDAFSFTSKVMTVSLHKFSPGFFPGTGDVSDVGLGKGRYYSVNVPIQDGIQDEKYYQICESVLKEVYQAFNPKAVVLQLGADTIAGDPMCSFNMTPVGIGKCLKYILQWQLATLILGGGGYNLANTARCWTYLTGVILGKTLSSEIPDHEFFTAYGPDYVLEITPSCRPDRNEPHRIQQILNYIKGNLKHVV
The experiment can be described thus: Inhibition of HDAC8 (unknown origin) at 5 uM relative to control.

Experiment [8] deals with T5, Protein deacetylase HDAC6 (Homo sapiens, UniProt Q9UBN7).
T5 sequence (Q9UBN7 whole entry): T3 sequence (whole entry)
The experiment in a line: Inhibition of HDAC6 (unknown origin).

For experiment [9], the target named is T2, Histone deacetylase 1. The experiment in a line: Inhibition of HDAC1 (unknown origin).
Experiment [10] deals with B16-F10. The experiment in a line: Cytotoxicity against mouse B16F10 cells assessed as growth inhibition after 72 hrs in presence of verapamil by MTS assay. Format: functional, cell-based.
Experiment [11] concerns the target T1, Protein deacetylase HDAC6 (Mus musculus). The experiment can be described thus: Inhibition of HDAC6 in mouse B16F10 cells assessed as accumulation of acetylated tubulin at 5 to 50 uM after 24 hrs by Western blot analysis. Format: cell-based.

The source made the active and inactive calls. The rule behind the calls is not given here.

`COc1ccc2cc(-c3cn(CCCCCC(=O)NO)nn3)ccc2c1`: the IC50 (in general, the point on the concentration scale where inhibition reaches its midpoint) in the experiment on B16-F10 [1] amounted to 10.5 µM; in the experiment with LNCaP it was 5.1 µM; with A-375, 12.6 µM. Moreover, the inhibition (as a rule, the drop in the measured response relative to a control, in per cent) in experiment [2] is “Active”.
For the molecule `CCN(CC)CCNC(=O)c1ccc(C(=O)ONC(=O)CCCCCn2cc(-c3ccc4cc(OC)ccc4c3)nn2)cc1`, the inhibition at Histone deacetylase 1 [3] is 100%; in [4], “Dose-dependent effect”; in [6] it was 99%; in experiment [7], 52%. Besides, the “growth inhibition (GI)” value in the experiment with B16-F10 [5] is “Active”. For the same molecule, the IC50 with B16-F10 [1] came out at 27.8 µM; in the experiment with LNCaP, 6.46 µM; in the experiment with A-375, 25.9 µM.
Consider `CCN(CC)CCNC(=O)c1ccc(-c2cn(CCCCCC(=O)NO)nn2)cn1`, for which the concentration for half-maximal inhibition (IC50) in experiment [8] was 0.17 µM; against Histone deacetylase 1 [9], 0.1 µM; in the experiment on B16-F10 [1], > 100 µM; with LNCaP, 10.5 µM; with A-375 it was > 100 µM.
As for `CCN(CC)CCNC(=O)c1ccc(-c2cn(CCCCCCC(=O)NO)nn2)cn1`, the half-inhibitory concentration (IC50) amounted to 0.034 µM in [8]; 0.017 µM against Histone deacetylase 1 [9]; 55.7 µM with B16-F10 [1]; 1.5 µM in the experiment with LNCaP; 47.2 µM in the experiment with A-375. In addition, the “growth inhibition (GI)” value in the experiment on B16-F10 [10] was “inactive”.
In the case of `CCN(CC)CCNC(=O)c1ccc(-c2cn(CCCCCCCC(=O)NO)nn2)cc1`, the half-maximal inhibitory concentration (IC50) in experiment [8] is 0.027 µM; on Histone deacetylase 1 [9], 0.012 µM; in the experiment on B16-F10 [1] it was 75.9 µM; in the experiment with LNCaP it was 3 µM; in the experiment with A-375, > 100 µM.
As to `O=C(CCCCCCC(=O)Nc1ccccc1)NO`, the inhibition result in experiment [2] was “Active”.
Turning to `CCN(CC)CCNC(=O)c1ccc(-c2cn(CCCCCCC(=O)NO)nn2)cc1`, in experiment [11], the inhibition entry was “Active”. In addition, the IC50 is 0.016 µM in experiment [8]; 0.0038 µM on Histone deacetylase 1 [9]; 34.2 µM with B16-F10 [1]; 1.2 µM in the experiment on LNCaP; 23.6 µM in the experiment on A-375. The “growth inhibition (GI)” value in the experiment with B16-F10 [5] was “Active”. Besides, the “growth inhibition (GI)” value with B16-F10 [10] is “inactive”.
